Test [1] has as its system rats fed with high fat diet. Put plainly: blood lipid of rats fed with high fat diet. In kind it is in vivo, SD rats. The note with it: 50 mg/kg intragastric, 10 days, serum. The source says: Serum total cholesterol kit (batch number 20131112), low density lipoprotein LDL-C kit (batch number 20140114), high density lipoprotein HDL-C kit (batch number 20140413), triglyceride TG kit (batch number 20131226), superoxide dismutase SOD kit (batch number 20140213) and glutamic-pyruvic transaminase ALT kit (batch number 20131006) are purchased from Nanjing Jiancheng Bioengineering Institute.
Methods: after being acclimatized for 1 week, the 200±20 g healthy male SD rats are randomly divided into 4 groups of 8 animals in each. The control group is fed with normal diet, while the other groups are fed with high-fat diet, which is normal diet with 1% cholesterol, 0.2% pig bile sal, 10% lard and 10% egg yolk powder. After being fed for 3 weeks, 10 mg/ml extract solution of 1 ml (which corresponds to 50 mg/kg) is given to different groups of rats by intragastric administration for 10 days successively, and the control group and model group are given with equal amounts of saline. After the last administration, blood is taken to be centrifuged at 3000 rpm in 4[…], and then detect serum total cholesterol, low density lipoprotein and triglyceride TG

For test [2], the system named is Wister rats fed with choline deficient diet. Put plainly: non-alcohol fatty liver disease in rats fed choline deficient (high-fat) diet. In kind it is in vivo. The note with it: for ALT / HDL-C / LDL-C / Liver index / TC / TG: 4 weeks. The procedure: Serum total cholesterol kit (batch number 20131112), low density lipoprotein LDL-C kit (batch number 20140114), high density lipoprotein HDL-C kit (batch number 20140413), triglyceride TG kit (batch number 20131226) and glutamic-pyruvic transaminase ALT kit (batch number 20131006) are purchased from Nanjing Jiancheng Bioengineering Institute.
Methods: male SPF level Wister rats are randomly divided into groups: (1) normal group (2) model control group (3) which is administered by compound S13 with the dose of 10 mg/kg (4) which is administered by compound S13 with the dose of 20 mg/kg (5) which is administered by compound S28 with the dose of 10 mg/kg […] which is administered by compound S28 with the dose of 20 mg/kg. Each group has 10 mice. The mice of normal group are fed with standard diet, the mice of other groups are fed with choline deficient diet (high-fat diet). Food intake and body weight are detected. Feeding with choline deficient diet are considered as a frequently-used hepatic adipose infiltration modeling method of rodent, which can induce the denaturation of hepatocyte, hepatitis and liver injury, at the same time the increase of blood lipid level can induce the insulin resistance.
After being fed with high-fat diet for 8 weeks, the mice of treated group are given drugs for 4 weeks successively. Model group and normal group are given with equal amounts of 0.5% CMC-Na. After administration of medicine for 4 weeks, the rats are executed under anesthesia, and then hepatic tissue and blood are collected.
2) Contents of serum total cholesterol, low density lipoprotein, high density lipoprotein and triglyceride.
3) Contents of glutamic-pyruvic transaminase.

The structures appear in SMILES notation. Marks after values point to notes of the source that are not given here.

For the compound `CC(C)=CCC/C(C)=C/CCC1=C[C@H](c2cc(O)ccc2O)OC1=O` [S13, (R,E)-5-(2,5-dihydroxyphenyl)-3-(4,8-dimethylnona-3,7-dien-1-yl)furan-2(5H)-one], in test [1], the ALT was 61.3* U/L, the HDL-C worked out at 0.99 mmol/L, the LDL-C is 0.36** mmol/L and the SOD is 2.04 U/L. In addition, in test [1], the TC is on record as 2.13* mmol/L and the TG is given as 0.44* mmol/L. Also, the “effect on liver index of fatty liver rats (in words)” value in test [2] is given as “effectively decrease the liver index of fatty liver rats”. In test [2] (10 mg/kg), the ALT is listed as 48.24** U/L, the HDL-C is on record as 0.57* mmol/L, the LDL-C is 0.83* mmol/L and the Liver index was 2.85**. Also, in test [2] (10 mg/kg), the TC is reported as 1.81** mmol/L and the TG is 1.21** mmol/L. Moreover, in test [2] (20 mg/kg), the ALT is 33.56** U/L, the HDL-C is reported as 0.72** mmol/L, the LDL-C is recorded as 0.71** mmol/L and the Liver index was 2.47**. Moreover, in test [2] (20 mg/kg), the TC was 1.37** mmol/L and the TG is 1.08** mmol/L.

As for `CC(C)=CCC/C(C)=C/CCC1=C[C@@H](c2cc(O)ccc2O)OC1=O` [S28, (S,E)-5-(2,5-dihydroxyphenyl)-3-(4,8-dimethylnona-3,7-dien-1-yl)furan-2(5H)-one], in test [1], the ALT is given as 72.1* U/L, the HDL-C was found to be 0.97 mmol/L, the LDL-C was 0.38** mmol/L and the SOD is recorded as 2.10* U/L. In addition, in test [1], the TC is listed as 1.98** mmol/L and the TG is on record as 0.45* mmol/L. Also, the “effect on liver index of fatty liver rats (in words)” value in test [2] is given as “effectively decrease the liver index of fatty liver rats”. Also, in test [2] (10 mg/kg), the ALT is recorded as 45.97** U/L, the HDL-C is reported as 0.61** mmol/L, the LDL-C was 0.79** mmol/L and the Liver index is recorded as 2.91**. In addition, in test [2] (10 mg/kg), the TC is recorded as 1.95** mmol/L and the TG was 1.38** mmol/L. In addition, in test [2] (20 mg/kg), the ALT is 41.08** U/L, the HDL-C is 0.68** mmol/L, the LDL-C is on record as 0.70** mmol/L and the Liver index is recorded as 2.58**. Also, in test [2] (20 mg/kg), the TC is on record as 1.36** mmol/L and the TG is given as 1.15** mmol/L.
